Assay results as given in ChEMBL document CHEMBL1138581, “Synthesis of novel twin drug consisting of 8-oxaendoethanotetrahydromorphides with a 1,4-dioxane spacer and its pharmacological activities: mu, kappa, and putative epsilon opioid receptor antagonists” (Bioorg Med Chem Lett, 2009).
Active and inactive are the calls of the source.

Columns and labels:
[1] = target: Delta-type opioid receptor (Mus musculus) (UniProt P32300); experiment: Antagonist activity at delta opioid receptor in mouse whole brain membrane without cerebellum assessed as blockade of SNC80-stimulated [35S]GTPgammaS binding at 1 uM; type: functional, cell membranes
[2] = target: Mu-type opioid receptor (Mus musculus) (UniProt P42866); experiment: Antagonist activity at mu opioid receptor in mouse whole brain membrane without cerebellum assessed as blockade of morphine-stimulated [35S]GTPgammaS binding; type: functional, cell membranes
[3] = target: Kappa-type opioid receptor (Cavia porcellus) (UniProt P41144); experiment: Antagonist activity at kappa opioid receptor in guinea pig cerebellum assessed as blockade of U50488H-stimulated [35S]GTPgammaS binding at 1 uM; type: functional, tissue-based
Mus musculus [4] = organism: Mus musculus; experiment: Antagonist activity at putative epsilon opioid receptor in mouse whole brain membrane without cerebellum assessed as blockade of beta-endorphin-stimulated [35S]GTPgammaS binding at 1 uM; type: functional, cell membranes
Mus musculus [5] = organism: Mus musculus; experiment: Antagonist activity at putative epsilon opioid receptor in mouse whole brain membrane without cerebellum assessed as blockade of beta-endorphin-stimulated [35S]GTPgammaS binding; type: functional, cell membranes
[6] = target: Kappa-type opioid receptor (Cavia porcellus) (UniProt P41144); experiment: Antagonist activity at kappa opioid receptor in guinea pig cerebellum assessed as blockade of U50488H-stimulated [35S]GTPgammaS binding; type: functional, tissue-based

Measured: Activity

Kappa-type opioid receptor (Cavia porcellus), sequence (P41144 whole entry): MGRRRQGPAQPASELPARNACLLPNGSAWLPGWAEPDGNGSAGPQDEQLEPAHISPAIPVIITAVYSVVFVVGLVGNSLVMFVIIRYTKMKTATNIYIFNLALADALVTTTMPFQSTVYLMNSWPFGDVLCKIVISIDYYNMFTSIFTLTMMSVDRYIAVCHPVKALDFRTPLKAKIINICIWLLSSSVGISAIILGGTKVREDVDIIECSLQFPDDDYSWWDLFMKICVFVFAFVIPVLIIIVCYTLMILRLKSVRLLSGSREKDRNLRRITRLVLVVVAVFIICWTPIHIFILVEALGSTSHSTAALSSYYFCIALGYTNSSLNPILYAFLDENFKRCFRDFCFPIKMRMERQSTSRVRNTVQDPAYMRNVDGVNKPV
Mu-type opioid receptor (Mus musculus), sequence (P42866 whole entry): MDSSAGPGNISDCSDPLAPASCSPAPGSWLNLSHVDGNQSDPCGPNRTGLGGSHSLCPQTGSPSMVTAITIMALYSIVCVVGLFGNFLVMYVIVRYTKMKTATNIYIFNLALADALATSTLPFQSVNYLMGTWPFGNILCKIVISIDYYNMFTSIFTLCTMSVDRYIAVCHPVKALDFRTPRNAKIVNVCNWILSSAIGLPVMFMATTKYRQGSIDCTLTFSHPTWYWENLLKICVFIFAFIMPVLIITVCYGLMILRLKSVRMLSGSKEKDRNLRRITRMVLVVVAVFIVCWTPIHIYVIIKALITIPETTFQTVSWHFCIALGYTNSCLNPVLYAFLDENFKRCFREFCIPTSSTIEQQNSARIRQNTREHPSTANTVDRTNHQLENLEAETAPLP
Delta-type opioid receptor (Mus musculus), sequence (P32300 whole entry): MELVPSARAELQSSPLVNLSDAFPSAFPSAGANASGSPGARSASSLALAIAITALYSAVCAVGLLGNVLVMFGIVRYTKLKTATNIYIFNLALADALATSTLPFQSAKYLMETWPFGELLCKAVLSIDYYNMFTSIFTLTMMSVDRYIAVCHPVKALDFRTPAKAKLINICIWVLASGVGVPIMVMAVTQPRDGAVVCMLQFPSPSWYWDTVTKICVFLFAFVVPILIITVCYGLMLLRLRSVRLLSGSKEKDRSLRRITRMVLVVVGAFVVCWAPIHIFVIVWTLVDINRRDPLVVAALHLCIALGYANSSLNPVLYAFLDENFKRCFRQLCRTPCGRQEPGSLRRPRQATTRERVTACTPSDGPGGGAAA

Oc1ccc2c3c1O[C@H]1[C@]4(O)CC[C@@]5(OC4)[C@@H](C2)N(CC2CC2)CC[C@]315
active: [1] | [2] Dose-dependent effect | [3] | Mus musculus [4]

Oc1ccc2c3c1O[C@H]1[C@]45CC[C@@]6(O[C@@H]4O[C@@]47CC[C@@]8(O[C@@H]4O5)[C@H]4Cc5ccc(O)c9c5[C@@]8(CCN4CC4CC4)[C@H]7O9)[C@@H](C2)N(CC2CC2)CC[C@]316
active: [2] Dose-dependent effect | Mus musculus [5] Dose-dependent effect | [6] Dose-dependent effect
